Measured values: patent publication US10183947B2, “Pyrazole derivatives useful as 5-lipoxygenase activating protein (FLAP) inhibitors” (ASTRAZENECA AB, priority 2015, dated 2019)
Like-named read-outs stand apart in the source and are kept apart here.

Assays:
[1] = target: FLAP (human ALOX5AP expressed in COS-7 cell membranes) (Homo sapiens (Human), UniProt P20292); test: FLAP Binding Assay (Test A), competition binding with 3H-MK591 as tracer; settings: competition with 3H-MK591 (2 nM), membranes from COS-7 cells expressing human ALOX5AP, 60 min at rt
Description: FLAP Binding Assay (Test A) Compounds were tested in a competition binding assay using ^3H-MK591 as tracer. […] Med. Chem. […] A 100,000×g pellet from COS-7 cells stably transfected with a plasmid expressing human ALOX5AP was the source of FLAP. […] Following filtration, filter plates were dried 12 h at RT (or 50° C. for 1 hour). 50 μL scintillant was then added, the filterplates were sealed and radioactivity was measured in a microbeta counter. Specific binding was defined as total binding minus non-specific binding. Total binding was defined as ^3H-MK591 bound to membranes in the absence of competitor, non-specific binding was defined as ^3H-MK591 in the presence of 0.1 mM MK-591. IC50 values were determined by plotting % inhibition versus log compound concentration and using a one site dose response model.

[2] = system: LTB4 production in fresh human whole blood; test: FLAP Whole Blood Assay (Test B), inhibition of LTB4 production; assay type: cell-based; settings: then calcium ionophore A23187, LTB4 by EIA
Description: FLAP Whole Blood Assay (Test B)
Compounds were tested for the inhibition of LTB4 production in fresh human whole blood obtained by venapuncture using heparin to prevent clotting. 1.5 μL compounds or DMSO carrier were dispensed into the wells of a 96-well deep-well plate in 3-fold dilution series. 500 μL hepamised whole blood was then added followed by incubation at 37° C. for 30 min (method A) or 4 h (method B). 100 μL blood was subsequently transferred in triplicate to pre-dispensed 0.5 μL 2 mM calcium ionophore (calcimycin; A23187) in a second 96-well plate. Following incubation at 37° C. for 20 min, the assays were stopped by adding 10 μL of stop solution (100 mM EGTA, pH 7.4) and the plate was transferred to ice. The plate was centrifuged at 3000 rpm at 4° C. for 10 min and […] was transferred to a fresh 96 well plate containing 90 μL pre-dispensed EIA assay buffer (0.1 M phosphate buffer+0.1% BSA). LTB4 was then measured using reagents from a commercial EIA (Cayman Chemicals). LTB4 production was defined as the LTB4 level in the presence of a given concentration of test compound minus the LTB4 level in the presence of 50 nM 5-[[4-[(2S,4R)-4-hydroxy-2-methyl-tetrahydropyran-4-yl]-2-thienyl]sulfanyl]-1-methyl-indolin-2-one. (Preparation of 5-[[4-[(2S,4R)-4-hydroxy-2-methyl-tetrahydropyran-4-yl]-2-thienyl]sulfanyl]-1-methyl-indolin-2-one was described in Org. Process Res. Dev., 2005, 9, 555-569 or EP623614 B1). Inhibition of LTB4 production was defined as the LTB4 level in the presence of a given concentration of test compound expressed as a % of the LTB4 level in the presence of DMSO. IC50 values were determined by plotting % inhibition versus log compound concentration and using a one site dose response model.

[3] = 0.5 h, method A: compound incubated with human whole blood at 37° C. for 30 min, read-out: IC50 nM (method A)
[4] = method B: compound incubated with human whole blood at 37° C. for 4 h, read-out: IC50 nM (method B)

FLAP (human ALOX5AP expressed in COS-7 cell membranes), sequence (P20292 whole entry): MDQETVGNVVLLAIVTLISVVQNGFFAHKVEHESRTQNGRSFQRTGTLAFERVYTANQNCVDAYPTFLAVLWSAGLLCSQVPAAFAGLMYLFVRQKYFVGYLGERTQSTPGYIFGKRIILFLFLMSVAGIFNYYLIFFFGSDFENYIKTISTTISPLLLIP

| SMILES | IC50 [1] | IC50 [2, 3] | IC50 [2, 4] |
| --- | --- | --- | --- |
| COc1c(NC(=O)C2CCCCC2C(=O)c2ccc(-c3cc[nH]n3)cc2)cnn1C (racemic) [Example 14, (1R,2R and 1S,2S)—N-(5-Methoxy-1-methyl-1H-pyrazol-4-yl)-2-[4-(1H-pyrazol-3-yl)benzoyl]cyclohexanecarboxamide] | 400 nM | 654 nM |  |
| Cn1ncc(NC(=O)C2CCCCC2C(=O)c2ccc(-c3ccn[nH]3)cc2Cl)c1C(N)=O (racemic) [Example 31, 4-[({(1R,2R and 1S,2S)-2-[2-Chloro-4-(1H-pyrazol-5-yl)benzoyl]-cyclohexyl}carbonyl)amino]-1-methyl-1H-pyrazole-5-carboxamide] | 190 nM |  | 390 nM |
| Cc1cc(-c2ccc(C(=O)C3CCCCC3C(=O)Nc3cnn(C)c3C(N)=O)c(Cl)c2)[nH]n1 (racemic) [Example 32, 4-[({(1R,2R and 1S,2S)-2-[2-Chloro-4-(3-methyl-1H-pyrazol-5-yl)benzoyl]cyclohexyl}carbonyl)amino]-1-methyl-1H-pyrazole-5-carboxamide] | 170 nM |  | 915 nM |
| CCn1cc(NC(=O)C2CCCCC2C(=O)c2ccc(-c3ccn[nH]3)cc2)c(C(N)=O)n1 (racemic) [Example 42, 1-Ethyl-4-[({(1R,2R and 1S,2S)-2-[4-(1H-pyrazol-5-yl)benzoyl]-cyclohexyl}carbonyl)amino]-1H-pyrazole-3-carboxamide] | 200 nM | 149 nM |  |
| Cc1cc(NC(=O)C2CCCCC2C(=O)c2ccc(-c3ccn[nH]3)cc2)on1 (racemic) [Example 44, (1R,2R and 1S,2S)—N-(3-Methyl-1,2-oxazol-5-yl)-2-[4-(1H-pyrazol-5-yl)benzoyl]cyclohexanecarboxamide] | 46 nM | 197 nM |  |
| Cc1coc(NC(=O)C2CCCCC2C(=O)c2ccc(-c3ccn[nH]3)cc2)n1 (racemic) [Example 45, (1R,2R and 1S,2S)—N-(4-Methyl-1,3-oxazol-2-yl)-2-[4-(1H-pyrazol-5-yl)benzoyl]cyclohexanecarboxamide] | 210 nM |  |  |
| Cc1cc(-c2ccc(C(=O)C3CCCCC3C(=O)Nc3cnn(C)c3C#N)cc2)[nH]n1 (racemic) [Example 46, (1R,2R and 1S,2S)—N-(5-Cyano-1-methyl-1H-pyrazol-4-yl)-2-[4-(3-methyl-1H-pyrazol-5-yl)benzoyl]cyclohexanecarboxamide] | 86 nM | 170 nM |  |
| O=C(Nc1nc(C2CC2)ns1)C1CCCCC1C(=O)c1ccc(-c2ccn[nH]2)cc1 (racemic) [Example 47, (1R,2R and 1S,2S)—N-(3-Cyclopropyl-1,2,4-thiadiazol-5-yl)-2-[4-(1H-pyrazol-5-yl)benzoyl]cyclohexanecarboxamide] | 53 nM | 260 nM |  |
| Cc1cc(NC(=O)C2CCCCC2C(=O)c2ccc(-c3ccn[nH]3)cc2)sn1 (racemic) [Example 48, (1R,2R and 1S,2S)—N-(3-Methyl-1,2-thiazol-5-yl)-2-[4-(1H-pyrazol-5-yl)benzoyl]cyclohexanecarboxamide] | 23 nM | 270 nM |  |
| Cc1nsc(NC(=O)C2CCCCC2C(=O)c2ccc(-c3ccn[nH]3)cc2)c1C#N (racemic) [Example 49, (1R,2R and 1S,1S)—N-(4-Cyano-3-methyl-1,2-thiazol-5-yl)-2-[4-(1H-pyrazol-5-yl)benzoyl]cyclohexanecarboxamide] | 44 nM | 640 nM |  |
| Cn1cc(NC(=O)C2CCCCC2C(=O)c2ccc(-c3cc[nH]n3)cc2)c(C(N)=O)n1 (single isomer, unassigned) [Example 1, 1-Methyl-4-[({(1R,2R or 1S,2S)-2-[4-(1H-pyrazol-3-yl)benzoyl]-cyclohexyl}carbonyl)amino]-1H-pyrazole-3-carboxamide] | 73 nM | 112 nM |  |
| Cc1cc(-c2ccc(C(=O)C3CCCCC3C(=O)Nc3cn(C)nc3C#N)cc2)[nH]n1 (single isomer, unassigned) [Example 5b, (1R,2R or 1S,2S)—N-(3-Cyano-1-methyl-1H-pyrazol-4-yl)-2-[4-(3-methyl-1H-pyrazol-5-yl)benzoyl]cyclohexanecarboxamide] |  |  | 95 nM |
| Cn1cc(NC(=O)C2CCCCC2C(=O)c2ccc(-c3cc[nH]n3)cc2)c(C#N)n1 (single isomer, unassigned) [Example 12, (1R,2R or 1S,2S)—N-(3-Cyano-1-methyl-1H-pyrazol-4-yl)-2-[4-(1H-pyrazol-3-yl)benzoyl]cyclohexanecarboxamide] | 41 nM |  | 100 nM |
| Cn1ncc(NC(=O)C2CCCCC2C(=O)c2ccc(-c3cc[nH]n3)cc2)c1C#N (single isomer, unassigned) [Example 18a, (1R,2R or 1S,2S)—N-(5-Cyano-1-methyl-1H-pyrazol-4-yl)-2-[4-(1H-pyrazol-3-yl)benzoyl]cyclohexanecarboxamide] | 3700 nM |  |  |
| Cn1ncc(NC(=O)C2CCCCC2C(=O)c2ccc(-c3cc[nH]n3)cc2)c1C#N (single isomer, unassigned) [Example 18b, (1S,2S or 1R,2R)—N-(5-Cyano-1-methyl-1H-pyrazol-4-yl)-2-[4-(1H-pyrazol-3-yl)benzoyl]cyclohexanecarboxamide] | 28 nM |  | 114 nM |
| Cc1cc(-c2ccc(C(=O)C3CCCCC3C(=O)Nc3cn(C)nc3C(N)=O)c(F)c2)[nH]n1 (single isomer, unassigned) [Example 36, 4-[({(1R,2R or 1S,2S)-2-[2-Fluoro-4-(3-methyl-1H-pyrazol-5-yl)benzoyl]-cyclohexyl}carbonyl)amino]-1-methyl-1H-pyrazole-3-carboxamide] |  |  | 148 nM |
| Cc1cc(-c2ccc(C(=O)[C@@H]3CCCC[C@H]3C(=O)Nc3cnn(C)c3C(N)=O)cc2)[nH]n1 [Example 3, 1-Methyl-4-[({(1R,2R)-2-[4-(3-methyl-1H-pyrazol-5-yl)benzoyl]cyclohexyl}-carbonyl)amino]-1H-pyrazole-5-carboxamide] |  |  | 70 nM |
| Cc1cc(-c2ccc(C(=O)[C@@H]3CCCC[C@H]3C(=O)Nc3cn(C)nc3C(N)=O)cc2)n[nH]1 [Example 4, 1-Methyl-4-[({(1R,2R)-2-[4-(3-methyl-1H-pyrazol-5-yl)benzoyl]-cyclohexyl}carbonyl)amino]-1H-pyrazole-3-carboxamide] |  |  | 290 nM |
| Cn1cc(NC(=O)[C@@H]2CCCC[C@H]2C(=O)c2ccc(-c3ccn[nH]3)cc2)c(OC(F)F)n1 [Example 9, (1R,2R)—N-[3-(Difluoromethoxy)-1-methyl-1H-pyrazol-4-yl]-2-[4-(1H-pyrazol-5-yl)benzoyl]cyclohexanecarboxamide] |  |  | 110 nM |
| Cc1cc(-c2ccc(C(=O)[C@@H]3CCCC[C@H]3C(=O)Nc3cnn(C)c3S(N)(=O)=O)cc2)[nH]n1 [Example 13, (1R,2R)-2-[4-(3-Methyl-1H-pyrazol-5-yl)benzoyl]-N-(1-methyl-5-sulfamoyl-1H-pyrazol-4-yl)cyclohexanecarboxamide] |  |  | 260 nM |
| CNC(=O)c1nn(C)cc1NC(=O)C1CCCCC1C(=O)c1ccc(-c2cc[nH]n2)cc1 [Example 20, N,1-Dimethyl-4-[({(1R,2R and 1S,2S)-2-[4-(1H-pyrazol-3-yl)benzoyl]-cyclohexyl}carbonyl)amino]-1H-pyrazole-3-carboxamide] |  | 281 nM |  |
| Cn1nnc(NC(=O)C2CCCCC2C(=O)c2ccc(-c3ccn[nH]3)cc2)c1C1CC1 [Example 33, (1R,2R and 1S,2S)—N-(5-Cyclopropyl-1-methyl-1H-1,2,3-triazol-4-yl)-2-[4-(1H-pyrazol-5-yl)benzoyl]cyclohexanecarboxamide] |  |  | 117 nM |
